Results published in US8987334B2, “Cosmetic and pharmaceutical formulations of calixarene molecules” (priority 2008, dated 2015).

Assay: Transcutaneous passage kinetics of calixarene in Franz cell
Assay type: in vitro ADME, pig
Settings: released from 1 ml nanoemulsion loaded with 4 mg/g calixarene; 24 hours exposure; occlusive; HPLC LD=17 ng/ml, LQ=52 ng/ml

Substance: 1,3,5-O-Me-2,4,6-OCH2COOH-p-tert-butylcalix[6]arene [calixarene]
- transcutaneous passage of calixarene: did not pass through the skin
